In ChEMBL document CHEMBL1128616, “A pair of new apotirucallane triterpenes, meliavolkensins A and B, from Melia volkensii (Meliaceae)” (1995) one finds EC50 and LC50 data, which are given here for three compounds.

Structures are written as SMILES. Converted amounts (≈) assume the structure as drawn.

Holding throughout (assay type): functional
For one assay, the system named is MCF9. The experiment in a line: Compound was tested for its cytotoxic activity in MTT assay against MCF-9 cell line (human breast carcinoma). The settings on record: read-out: ED50 (the source's name). For orientation: Tetrazolium assays rely on reduction of a dye to a coloured formazan, in cell work by metabolically active cells.
A further assay has as its system HT-29. Briefly: Compound was tested for its cytotoxic activity in MTT assay against HT-29 cell line (human colon adenocarcinoma). The settings on record: read-out: ED50 (the source's name).
A further assay relates to A549. Briefly: Compound was tested for its cytotoxic activity in MTT assay against A-549 cell line (human lung carcinoma). The settings on record: read-out: ED50 (the source's name).
The subject of another assay is Artemia. Briefly: Compound was tested for its cytotoxic activity by brine shrimp lethality test.

With `COc1cccc2c1C(=O)c1c(O)c3c(c(O)c1C2=O)C[C@@](O)(C(=O)CO)C[C@@H]3O[C@H]1C[C@H](N)[C@H](O)[C@H](C)O1` [DOXORUBICIN], the EC50 in the assay on MCF9 was 0.0673 µg/mL (≈ 0.124 µM); with HT-29, 0.0261 µg/mL (≈ 0.048 µM); in the assay on A549, 0.00844 µg/mL (≈ 0.0155 µM).
On to `CO[C@@]1(C(C)(C)O)CC[C@@H]([C@@H]2CC=C3[C@@]4(C)C(CC[C@]32C)[C@]2(C)C(C[C@H]4OC(C)=O)C(C)(C)C(OC(=O)c3ccccc3)C[C@@H]2OC(C)=O)CO1` (stereo partly specified), for which the figures for the EC50 in the assay on MCF9, in the assay on HT-29 and with A549 were 2.02 µg/mL (≈ 2.85 µM), 0.25 µg/mL (≈ 0.353 µM) and 10.6 µg/mL (≈ 15 µM), respectively. The LC50 (in general, the concentration that kills 50% of the test population) in the assay on Artemia turned out to be 89.3 µg/mL (≈ 126 µM).
On the same counts, the results for `CO[C@]1(C(C)(C)O)CC[C@@H]([C@@H]2CC=C3[C@@]4(C)C(CC[C@]32C)[C@]2(C)C(C[C@H]4OC(C)=O)C(C)(C)C(OC(=O)c3ccccc3)C[C@@H]2OC(C)=O)CO1` (stereo partly specified) are 3.06 µg/mL (≈ 4.32 µM), 0.49 µg/mL (≈ 0.691 µM), 13.3 µg/mL (≈ 18.7 µM) and 107 µg/mL (≈ 150 µM).
